Key:
[1] = system: human NPM-ALK overexpressing murine BaF3 cells; assay: Growth inhibition of BaF3-NPM-ALK cells (Yopro staining); format: cell-based; settings: Mus musculus, 48 h; two days incubation
Excerpt: The expression of NPM-ALK is achieved by transfecting the BaF3 cell line with an expression vector pCIneo™ (Promega Corp., Madison Wis., USA) coding for NPM-ALK and subsequent selection of G418 resistant cells. Non-transfected BaF3 cells depend on IL-3 for cell survival. In contrast NPM-ALK expressing BaF3 cells (named BaF3-NPM-ALK hereinafter) can proliferate in the absence of IL-3 because they obtain proliferative signal through NPM-ALK kinase. Putative inhibitors of the NPM-ALK kinase therefore abolish the growth signal and result in antiproliferative activity. […] The inhibitory activity of the compounds of formula I is determined, briefly, as follows: BaF3-NPM-ALK cells (15,000/microtitre plate well) are transferred to 96-well microtitre plates. […] The growth of the BaF3-NPM-ALK cells is measured by means of Yopro™ staining [T Idziorek et al. J. Immunol. […] Cell lysis is completed within 60 min at room temperature and total amount of Yopro bound to DNA is determined by measurement using the Cytofluor II 96-well reader (PerSeptive Biosystems) with the following settings: Excitation (nm) 485/20 and Emission (nm) 530/25. IC50 values are determined by a computer-aided system using the formula: IC50=[(ABStest−ABSstart)/(ABScontrol−ABSstart)]×100. […]

FAK = FAK (Mus musculus, UniProt P34152); assay: Phos IC50 (phosphorylation); format: cell-based
[2] = target: Focal Adhesion Kinase (FAK) (Homo sapiens, UniProt Q05397); assay: FAK assay system (Focal Adhesion Kinase inhibition); format: biochemical; settings: read-out: FAK IC50
IGF-IR = IGF-IR (Homo sapiens, UniProt P08069); assay: Cellular Capture ELISA of IGF-I induced autophosphorylation of the IGF-IR; format: cell-based; settings: read-out: IGF-1R IC50
Procedure: In this assay the activity of the compounds of the invention against Insulin-like growth factor I (IGF-I) induced autophosphorylation of the IGF-IR is determined.

[3] = target: GST-ALK protein tyrosine kinase (Homo sapiens, UniProt Q9UM73); assay: In vitro enzyme assay using GST-ALK protein tyrosine kinase (filter binding assay); format: biochemical; settings: b80; assay not specified further; lower end printed as <0.5; read-out: IC50, inhibition of tyrosine kinase activity of anaplastic lymphoma kinase (ALK)
Procedure: Assays are incubated for 10 min at ambient temperature. […] Following washing (0.5% H3PO4), plates are counted in a liquid scintillation counter. IC50 values are calculated by linear regression analysis of the percentage inhibition.

[4] = system: Mouse mammary carcinoma 4T1 cells; assay: Anchorage-independent tumor cell growth assay; format: cell-based; settings: Mus musculus, 4T1
Procedure: Cells are cultured for 2 h and inhibitors are added at various concentrations in a final concentration of 0.1% DMSO. After 48 h, cell growth is assayed with the cell counting kit-8 (Wako Pure Chemical), which uses a water soluble tetrazolium salt WST8. Twenty μL of the reagent is added into each well and cells are further cultured for 2 h. The optical density is measured at 450 nm.

T Cell = T Cell Migration; format: cell-based; settings: T-cell

IGF-IR, sequence (P08069 31-1367): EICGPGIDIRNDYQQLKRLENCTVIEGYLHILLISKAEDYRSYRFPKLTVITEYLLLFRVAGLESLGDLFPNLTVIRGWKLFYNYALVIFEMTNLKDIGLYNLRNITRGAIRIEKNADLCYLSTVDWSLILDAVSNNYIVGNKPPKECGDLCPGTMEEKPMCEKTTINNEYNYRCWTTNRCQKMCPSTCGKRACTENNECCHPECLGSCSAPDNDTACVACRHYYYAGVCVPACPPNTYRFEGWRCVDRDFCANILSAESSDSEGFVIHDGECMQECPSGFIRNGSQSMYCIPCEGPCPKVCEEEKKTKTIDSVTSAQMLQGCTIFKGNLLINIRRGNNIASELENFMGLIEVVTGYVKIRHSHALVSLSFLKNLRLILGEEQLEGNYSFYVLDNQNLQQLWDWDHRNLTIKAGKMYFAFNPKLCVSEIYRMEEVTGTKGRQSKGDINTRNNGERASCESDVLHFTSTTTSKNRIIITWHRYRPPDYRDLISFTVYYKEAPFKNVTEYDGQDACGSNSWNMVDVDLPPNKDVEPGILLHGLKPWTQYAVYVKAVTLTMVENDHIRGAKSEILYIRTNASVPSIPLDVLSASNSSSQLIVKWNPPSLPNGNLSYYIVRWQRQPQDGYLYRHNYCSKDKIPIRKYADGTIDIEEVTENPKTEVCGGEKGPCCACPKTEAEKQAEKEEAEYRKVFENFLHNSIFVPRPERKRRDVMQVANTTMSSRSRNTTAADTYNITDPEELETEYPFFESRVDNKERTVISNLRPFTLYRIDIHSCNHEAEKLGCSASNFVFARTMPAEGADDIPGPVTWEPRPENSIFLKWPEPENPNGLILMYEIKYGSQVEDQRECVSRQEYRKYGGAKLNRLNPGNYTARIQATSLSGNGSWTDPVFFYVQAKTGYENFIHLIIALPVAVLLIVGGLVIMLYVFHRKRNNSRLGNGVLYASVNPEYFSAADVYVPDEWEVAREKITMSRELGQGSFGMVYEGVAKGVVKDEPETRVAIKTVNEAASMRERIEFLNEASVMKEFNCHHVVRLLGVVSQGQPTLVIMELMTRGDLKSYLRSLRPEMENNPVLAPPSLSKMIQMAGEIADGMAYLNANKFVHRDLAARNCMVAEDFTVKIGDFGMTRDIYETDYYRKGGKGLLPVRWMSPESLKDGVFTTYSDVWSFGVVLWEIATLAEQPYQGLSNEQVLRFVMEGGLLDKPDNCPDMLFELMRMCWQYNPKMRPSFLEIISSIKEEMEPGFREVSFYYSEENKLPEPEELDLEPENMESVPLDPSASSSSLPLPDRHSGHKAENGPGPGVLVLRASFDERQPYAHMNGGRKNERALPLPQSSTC
FAK, sequence (P34152 2-1052): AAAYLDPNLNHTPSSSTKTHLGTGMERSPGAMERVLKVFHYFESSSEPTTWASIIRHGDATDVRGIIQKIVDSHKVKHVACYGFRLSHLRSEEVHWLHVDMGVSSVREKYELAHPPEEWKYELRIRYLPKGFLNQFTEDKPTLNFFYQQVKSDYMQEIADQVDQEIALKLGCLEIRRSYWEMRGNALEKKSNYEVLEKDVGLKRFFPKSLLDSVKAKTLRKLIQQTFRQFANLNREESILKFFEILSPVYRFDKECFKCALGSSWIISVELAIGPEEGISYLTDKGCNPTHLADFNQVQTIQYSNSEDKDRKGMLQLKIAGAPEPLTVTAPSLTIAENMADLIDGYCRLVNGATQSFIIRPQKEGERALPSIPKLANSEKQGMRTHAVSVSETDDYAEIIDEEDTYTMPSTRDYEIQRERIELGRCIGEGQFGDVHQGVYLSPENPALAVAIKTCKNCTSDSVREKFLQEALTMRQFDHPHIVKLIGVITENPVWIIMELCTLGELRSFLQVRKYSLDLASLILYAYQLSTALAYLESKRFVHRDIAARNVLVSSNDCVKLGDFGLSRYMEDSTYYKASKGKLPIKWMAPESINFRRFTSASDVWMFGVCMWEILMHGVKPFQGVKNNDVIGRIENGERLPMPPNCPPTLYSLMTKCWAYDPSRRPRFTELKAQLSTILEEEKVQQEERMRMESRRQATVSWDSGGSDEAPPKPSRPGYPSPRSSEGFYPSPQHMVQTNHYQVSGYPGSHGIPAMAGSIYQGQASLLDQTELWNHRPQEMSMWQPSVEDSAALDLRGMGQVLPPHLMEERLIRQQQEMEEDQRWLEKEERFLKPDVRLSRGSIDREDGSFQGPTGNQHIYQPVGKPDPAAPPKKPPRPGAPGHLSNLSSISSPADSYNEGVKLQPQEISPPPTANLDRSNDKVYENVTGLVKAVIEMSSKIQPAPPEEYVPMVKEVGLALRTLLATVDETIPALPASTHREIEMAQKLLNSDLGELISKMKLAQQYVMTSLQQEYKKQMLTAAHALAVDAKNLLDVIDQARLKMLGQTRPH
Focal Adhesion Kinase (FAK), sequence (Q05397 384-706): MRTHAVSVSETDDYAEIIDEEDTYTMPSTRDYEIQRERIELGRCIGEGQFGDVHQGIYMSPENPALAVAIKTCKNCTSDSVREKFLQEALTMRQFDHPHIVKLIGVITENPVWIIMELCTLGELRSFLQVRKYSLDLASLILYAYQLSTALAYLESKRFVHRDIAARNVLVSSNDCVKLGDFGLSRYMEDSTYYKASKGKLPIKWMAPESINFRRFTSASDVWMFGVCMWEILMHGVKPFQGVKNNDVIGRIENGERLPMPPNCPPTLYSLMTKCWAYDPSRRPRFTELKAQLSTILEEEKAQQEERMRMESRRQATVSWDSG
GST-ALK protein tyrosine kinase, sequence (Q9UM73 1116-1392): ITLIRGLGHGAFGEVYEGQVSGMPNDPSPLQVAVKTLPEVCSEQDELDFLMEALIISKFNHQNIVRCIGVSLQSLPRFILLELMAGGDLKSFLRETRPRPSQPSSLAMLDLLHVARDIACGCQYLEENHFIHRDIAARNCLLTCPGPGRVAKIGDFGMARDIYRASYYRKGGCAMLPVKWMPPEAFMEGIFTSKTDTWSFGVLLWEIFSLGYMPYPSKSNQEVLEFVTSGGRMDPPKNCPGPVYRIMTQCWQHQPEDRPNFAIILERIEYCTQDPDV

IC50 [1] [µM]	IC50 (FAK) [µM]	IC50 [2] [µM]	IC50 (IGF-IR) [µM]	IC50 [3] [µM]	IC50 [4] [µM]	IC50 (T Cell) [µM]	SMILES
0.097	–	–	–	–	–	–	CNC(=O)c1ccccc1Nc1nc(Nc2ccc(N3CCOCC3)cc2OC)ncc1Cl [2-[5-chloro-2-(2-methoxy-4-morpholin-4-yl-phenylamino)-pyrimidin-4-ylamino]-N-methyl-benzamide]
–	0.1	0.0014	0.23	0.0005 to 0.2	0.13	–	CCCS(=O)(=O)c1ccccc1Nc1nc(Nc2ccc(N3CCC(N4CCCCC4)CC3)cc2OC)ncc1Cl [Example 26-3]
–	0.2	< 0.001	1.41	–	0.3	0.29	CNC1CCN(c2ccc(Nc3ncc(Cl)c(Nc4ccccc4S(=O)(=O)NC(C)C)n3)c(OC)c2)C1 (centres unmarked) [Example 19-1]
–	0.02	0.013	3.55	–	0.17	0.8	CNS(=O)(=O)c1ccccc1Nc1nc(Nc2cc(OCCN3CCOCC3)ccc2OC)ncc1Br [Example 3-35]
–	0.06	0.0045	0.26	0.0005 to 0.2	0.19	–	CNC(=O)c1ccccc1Nc1nc(Nc2ccc(N3CCN4CCOC[C@H]4C3)cc2OC)ncc1Cl [Example 7-15]
–	0.03	0.0029	0.13	–	0.05	0.09	CNS(=O)(=O)c1ccccc1Nc1nc(Nc2ccc(OC3CCN(C)CC3)cc2OC)ncc1Br [Example 3-33]
